Measurements as given in article PMC9698773, “Design, Synthesis, Molecular Modeling, and Anticancer Evaluation of New VEGFR-2 Inhibitors Based on the Indolin-2-One Scaffold” (Pharmaceuticals, 2022).
Values joined by “and” are separate entries in the source; they are usually repeats but may differ in a detail not shown here. Identical values can stand only once.

What was measured:
HepG2 cells = test: Apoptosis analysis (Annexin V-FITC/PI, flow cytometry); type: cell-based, human; conditions: HepG2, 1.13 µM, 24 h
Method: The HepG2 cells were treated with 17a (1.13 µM for 24 h), and the apoptotic effect was determined using Annexin V-FITC/PI assay. […] In addition, 17a enhanced the necrosis percentage 4-fold more than the control.
The apoptotic ability of compound 17a to the HepG2 cells was assessed using Annexin V-FITC/PI dual staining by flow cytometric analysis, as shown in the Supplementary Materials. […]
4.2.3. Cell cycle analysis […]
4.2.4. Apoptosis analysis
Flow cytometry cell apoptosis analysis was used to investigate the apoptotic effect of the synthesized compounds. HepG2 cells were treated with compound 17a (1.13 μM) for 24 h, collected by trypsin, centrifuged, washed two successive times with PBS, suspended in 500 μL binding buffer, and double stained with 5 μL Annexin V‐FITC and 5 μL PI in the dark at room temperature for 15 min. The stained cells were measured using a BD FACSCalibur™ Flow Cytometer and analyzed using Flowing software. […]

caspase-3 = test: Caspase-3 expression assay (quantitative real-time PCR); type: cell-based, human; conditions: HepG2, 1.13 µM, 24 h; control = 1
Method: The gene expression fold change of caspase-3 and -9 in the HepG2 cells treated with 1.13 µM of compound 17a for 24 h was determined using quantitative real-time PCR analysis.
The expression of caspase-3 and -9 in the liver HepG2 cells treated with 1.13 μM of 17a was determined using quantitative real-time PCR analysis, as presented in the Supplementary Materials.
Pharmaceuticals 2022, 15, x FOR PEER REVIEW 3 of 22
Figure S1. Simple linear regression for the correlation between cytotoxicity against HepG2 cell line […]
Figure S2. Simple linear regression for the correlation between cytotoxicity against MCF‐7 cell line […]
4.2.3. Cell cycle analysis
To determine the role of the synthesized compounds in cell cycle distribution, cell cycle analysis was performed using propidium iodide (PI) staining and flow cytometry analysis for compound 17a. […] The stained cells were measured using a BD FACSCalibur™ Flow Cytometer, and the data were analyzed using Flowing software (version 2.5.1, Turku Centre for Biotech‐ […]
Flow cytometry cell apoptosis analysis was used to investigate the apoptotic effect of the synthesized compounds. […] The stained cells were measured using a BD FACSCalibur™ Flow Cytometer and analyzed using Flowing software. […]
The expression of BAX and Bcl‐2 proteins were determined using Western blot anal‐ ysis. […]

O=C1Nc2ccccc2C1=Nc1ccc(C(=O)NNC(=S)Nc2ccccc2)cc1 [Compound 17a, 2-(4-((2-Oxoindolin-3-ylidene)amino)benzoyl)-N-phenylhydrazinecarbothioamide]
Apoptosis Early (HepG2 cells): 33.86% | Apoptosis Late (HepG2 cells): 7.99% | Apoptosis Total (HepG2 cells): 46.38% | Necrosis (HepG2 cells): 4.53% | increase of necrosis percentage versus control (HepG2 cells): 4 fold | Gene Expression Fold Change (Normalized to β-Actin) Caspases-3 (caspase-3): 6.88 fold and 6.9 fold and 6.889 fold
